According to patent US20250129076A1, “FUSED TETRACYCLIC COMPOUNDS, COMPOSITIONS AND DIAGNOSTIC APPLICATIONS THEREOF” (priority 2021, published 2025):
Entries after “also recorded” stand apart in the source; their conditions may differ.

Assays:
RNA = assay: Detection of RNA binding by the compounds (Table 2); conditions: yes = binding detected, empty cells not reported
DNA [1] = assay: Detection of DNA binding by the compounds (Table 2); conditions: yes = binding detected, empty cells not reported
Calf Thymus DNA (CT-DNA) = assay: Increase in fluorescence upon binding with Calf Thymus DNA; conditions: figure legends FIG. 12-22
Protocol: 1 mg/ml stock solutions of all the compounds were prepared in DMSO. Few insoluble compounds were then dissolved in non-polar solvent. 10 ul (1 mg/ml) of each of the compounds were used to do an absorbance scan in the TECAN nano reader and the graphs were plotted. The absorbance peaks for each of the compounds were tabulated and further used as excitation wavelength for fluorescence scans. Initially an absorbance scan was performed to identify the excitation maxima after which the excitation wavelength was used to obtain the emission maxima/fluorescence plots. Once the excitation and emission maxima were known, different concentrations of the compounds were used starting from 10 ng to saturating concentrations to obtain fluorescent spectra. Similarly, a fixed concentration of the compound was used to which an increasing concentration of DNA/RNA was added until saturation to find the nucleic acid binding properties of the dyes and compounds. In addition, a fixed concentration of DNA/RNA was used, to which increasing concentrations of the compounds were added until saturation. The data obtained was plotted and used for calculating binding constants and determining the binding ability of the dyes and compounds. 1 mg/ml stock solutions of all compounds the were prepared in DMSO. Few insoluble compounds were then dissolved in nonpolar solvent. 10 ul (1 mg/ml) of each of the compounds were used to do an absorbance scan in the TECAN nano reader and the graphs were plotted. The absorbance peaks for each of the compounds were tabulated and further used as excitation wavelength for fluorescence scans. Initially an absorbance scan was performed to identify the excitation maxima after which the excitation wavelength was used to obtain the fluorescence plots. Once the excitation and emission maxima were known, different concentrations of the compounds were used starting from 10 ng to saturating concentrations to obtain fluorescent spectra. Similarly, a fixed concentration of the said compound was used to which an increasing concentration of DNA/RNA was added until saturation to find the nucleic acid binding properties of the dyes and compounds. In addition, a fixed concentration of DNA/RNA was used, to which increasing concentrations of the compounds were added until saturation. The data obtained was plotted and used for calculating binding constants and determining the binding ability of the dyes and compounds.

[2] = Absorbance and fluorescence scans (excitation and emission maxima); type: physicochemical; design: unit not given here; conditions: compound alone; Table 6
Protocol: 1 mg/ml stock solutions of all the compounds were prepared in DMSO. Few insoluble compounds were then dissolved in non-polar solvent. 10 ul (1 mg/ml) of each of the compounds were used to do an absorbance scan in the TECAN nano reader and the graphs were plotted.
The absorbance peaks for each of the compounds were tabulated and further used as excitation wavelength for fluorescence scans. Initially an absorbance scan was performed to identify the excitation maxima after which the excitation wavelength was used to obtain the emission maxima/fluorescence plots. Once the excitation and emission maxima were known, different concentrations of the compounds were used starting from 10 ng to saturating concentrations to obtain fluorescent spectra. Similarly, a fixed concentration of the compound was used to which an increasing concentration of DNA/RNA was added until saturation to find the nucleic acid binding properties of the dyes and compounds. In addition, a fixed concentration of DNA/RNA was used, to which increasing concentrations of the compounds were added until saturation. The data obtained was plotted and used for calculating binding constants and determining the binding ability of the dyes and compounds. […]
(§1) 1 mg/ml stock solutions of all compounds the were prepared in DMSO. Few insoluble compounds were then dissolved in nonpolar solvent. 10 ul (1 mg/ml) of each of the compounds were used to do an absorbance scan in the TECAN nano reader and the graphs were plotted. The absorbance peaks for each of the compounds were tabulated and further used as excitation wavelength for fluorescence scans. Initially an absorbance scan was performed to identify the excitation maxima after which the excitation wavelength was used to obtain the fluorescence plots. Once the excitation and emission maxima were known, different concentrations of the compounds were used starting from 10 ng to saturating concentrations to obtain fluorescent spectra. Similarly, a fixed concentration of the said compound was used to which an increasing concentration of DNA/RNA was added until saturation to find the nucleic acid binding properties of the dyes and compounds. In addition, a fixed concentration of DNA/RNA was used, to which increasing concentrations of the compounds were added until saturation. The data obtained was plotted and used for calculating binding constants and determining the binding ability of the dyes and compounds.

DNA [3] = assay: Emission maxima with DNA; type: binding; conditions: Table 6
Protocol: The absorbance peaks for each of the compounds were tabulated and further used as excitation wavelength for fluorescence scans. Initially an absorbance scan was performed to identify the excitation maxima after which the excitation wavelength was used to obtain the emission maxima/fluorescence plots. Once the excitation and emission maxima were known, different concentrations of the compounds were used starting from 10 ng to saturating concentrations to obtain fluorescent spectra. Similarly, a fixed concentration of the compound was used to which an increasing concentration of DNA/RNA was added until saturation to find the nucleic acid binding properties of the dyes and compounds. In addition, a fixed concentration of DNA/RNA was used, to which increasing concentrations of the compounds were added until saturation. The data obtained was plotted and used for calculating binding constants and determining the binding ability of the dyes and compounds.
as §1

RNA of E. coli BL21 = assay: Working concentration of compound (25) for RNA detection, agarose gel electrophoresis; type: binding; conditions: 10-50 ng RNA with 5, 10, 20, 40 ng of compound 25; 1% agarose gel, TBE buffer
Protocol: To check the working concentration of compound (25) using different concentrations of RNA, RNA of E. coli BL21 was isolated and diluted to 10 ng/μl from the stock. Using a TBE buffer 1% agarose gel was casted and gel electrophoresis is performed using 10-50 ng concentration of RNA with 5, 10, 20, 40 ng of compound 25.

Protein = assay: Detection of protein binding by the compounds (Table 2); conditions: yes = binding detected, empty cells not reported
Excerpt: Absorbance Spectra and Fluorescence Spectra conditions for compound+DNA/RNA/Protein Methods of experimentation: An Excitation Max: 488 nm, Emission Max: 560 nm, Band width: 488-600 nm on Alexa Fluor 488 channel were used for flow cytometry and microscopic determinations TECAN spectrofluorimeter.

[4] = Comparison with commonly available DNA staining agents: toxicity (Table 3); conditions: Hoescht and DAPI cells wrap: 'Potentially carcinogenic & Mutagenic'
[5] = Comparison with commonly available DNA staining agents: photostability (Table 3); type: physicochemical
double-stranded DNA = conditions: when bound; cited from earlier work

| Compound | RNA (binding detected) (RNA) | DNA (binding detected) (DNA [1]) | increase in fluorescence upon binding with Calf Thymus DNA (CT-DNA) (Calf Thymus DNA (CT-DNA)) [fold] | Emission maxima [2] | Excitation Maxima [2] | Emission maxim with DNA (DNA [3]) [nm] | other results |
| --- | --- | --- | --- | --- | --- | --- | --- |
| COc1cc(/C=C2\COc3cc(O)ccc3C2=O)ccc1O [Compound 007] | Yes | yes | 25 | – | – | – | – |
| COc1ccc2c(c1)OC/C(=C\c1ccc(OC)c(OC)c1)C2=O [Compound 009] | yes | – | 15 | – | – | – | – |
| O=C1/C(=C/c2ccc(O)c(O)c2)COc2cc(O)ccc21 [Compound 015] | yes | yes | – | 570 | 490 | 610 | – |
| Cc1ccc2c(c1)OC/C(=C\c1ccc(C)c(C)c1)C2=O [Compound 016] | – | yes | 5 | 610 | 490 | 610 | – |
| Oc1ccc2c(c1)OC[C@](O)(Cc1ccc(O)c(O)c1)[C@H]2O [Compound 017] | yes | yes | > 1000 | – | – | – | – |
| O=C1C=C2C(=C[C@@]3(O)COc4cc(O)ccc4[C@@H]23)C=C1O [Compound 019] | – | yes | > 1000 | 570 | 490 | 570 | – |
| COc1ccc2c(c1)SCC1=C2c2cc(OC)c(OC)cc2C1 [Compound 021] | yes | – | – | – | – | – | – |
| CN1C/C(=C\c2ccc(O)c(O)c2)C(=O)c2ccc(O)cc21 [Compound 025] | yes | – | > 1000 | – | – | – | RNA bands on gel (RNA of E. coli BL21): bands are in all the wells |
| Cc1ccc(C)cc1 [Compound 026] | yes | yes | – | 580 | 490 | 590 | – |
| CCc1cc(O)ccc1C(=O)/C=C/C1=CC(OC)C(O)C=C1 (centres unmarked) [Compound 031] | yes | – | – | 610 | 490 | 610 | – |
| Cc1cc2c(cc1O)OC[C@]1(O)Cc3cc(O)c(O)cc3[C@H]21 [Compound 032] | – | – | – | 570 | 490 | 570 | – |
| Oc1ccc2c(c1)OC[C@]1(O)Cc3cc(O)c(O)cc3[C@H]21 [Compound 033] | yes | yes | > 1000 | – | – | – | – |
| Oc1cc2c(cc1O)[C@@H]1c3cc(-c4ccccc4)c(O)cc3OC[C@]1(O)C2 [Compound 035] | yes | – | > 1000 | 580 | 490 | 580 | Protein (binding detected) (Protein): yes |
| Oc1cc2c(cc1O)[C@@H]1c3cc(-c4ccc(F)cc4)c(O)cc3OC[C@]1(O)C2 [Compound 037] | yes | yes | > 1000 | – | – | – | Protein (binding detected) (Protein): yes |
| COc1cc2c(cc1OC)[C@@H]1c3cc(-c4ccccc4)c(OC)cc3N(S(=O)(=O)c3ccc(C)cc3)C[C@]1(O)C2 [Compound 038] | yes | – | 2 | – | – | – | – |
| Cc1ccc(S(=O)(=O)N2C[C@]3(O)Cc4cc(O)c(O)cc4[C@@H]3c3cc(-c4ccc(F)cc4)c(O)cc32)cc1 [Compound 039] | – | yes | – | – | – | – | – |
| N=C(N)c1ccc(-c2cc3ccc(C(=N)N)cc3[nH]2)cc1 [DAPI] | – | – | – | – | – | – | Toxicity [4]: carcinogenic; also recorded: & Mutagenic; Photostability [5]: 10 min |
| CCCN(CCCN(C)C)c1cc(/C=C2/Sc3ccccc3N2C)c2ccccc2[n+]1-c1ccccc1 [SYBR Green] | – | – | – | – | – | – | absorbs at a wavelength (double-stranded DNA): around 497 nm; emits fluorescence (double-stranded DNA): around 530 nm |
